According to PubChem BioAssay (NCI):
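Grown in 96-well plates, cells were treated for 48 hours with each compound at five concentrations. Insufficient inhibition: endpoint recorded as highest concentration tested. The concentration for 50% growth inhibition is given as GI50. The concentration for full growth arrest is given as TGI.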

How the values were obtained:
Assay in all cases: NCI anticancer screen, dose series, 48 h
IGROV1 ovarian = tested on: IGROV1 ovarian
NCI-H460 lung = tested on: NCI-H460 lung
OVCAR-4 ovarian = tested on: OVCAR-4 ovarian
SNB-75 CNS = tested on: SNB-75 CNS
NCI-H23 lung = tested on: NCI-H23 lung
PC-3 prostate = tested on: PC-3 prostate
MCF7 breast = tested on: MCF7 breast
BT-549 breast = tested on: BT-549 breast
ACHN renal = tested on: ACHN renal
OVCAR-8 ovarian = tested on: OVCAR-8 ovarian

Structure (SMILES) | TGI (IGROV1 ovarian) [µM] | TGI (NCI-H460 lung) [µM] | TGI (OVCAR-4 ovarian) [µM] | TGI (SNB-75 CNS) [µM] | TGI (NCI-H23 lung) [µM] | TGI (PC-3 prostate) [µM] | TGI (MCF7 breast) [µM] | TGI (BT-549 breast) [µM] | TGI (ACHN renal) [µM] | TGI (OVCAR-8 ovarian) [µM] | GI50 (IGROV1 ovarian) [µM] | GI50 (NCI-H460 lung) [µM] | GI50 (OVCAR-4 ovarian) [µM] | GI50 (SNB-75 CNS) [µM] | GI50 (NCI-H23 lung) [µM] | GI50 (PC-3 prostate) [µM] | GI50 (MCF7 breast) [µM] | GI50 (BT-549 breast) [µM] | GI50 (ACHN renal) [µM] | GI50 (OVCAR-8 ovarian) [µM]
COc1c2ccoc2nc2c(OC)c(OCC(O)C(C)(C)O)ccc12 (stereo not given) | > 100 | > 100 | > 100 | > 100 | > 100 | > 100 | > 100 | > 100 | > 100 | > 100 | – | – | – | – | – | – | – | – | – | –
NCCO/C=C/C(N)C(=O)O (stereo not given) | > 100 | > 100 | > 100 | > 100 | > 100 | > 100 | > 100 | > 100 | > 100 | > 100 | – | – | – | – | – | – | – | – | – | –
Cn1c(COC(=O)NCCc2ccccn2)nc2c(N3CCOCC3)nc(Cl)nc21 | 2.84 | 3.63 | 3.63 | 11.8 | 4.7 | 3.56 | 2.95 | 4.06 | 2.57 | 10.1 | 1.31 | 1.62 | 1.62 | 1.38 | 2 | 1.64 | 0.946 | 1.71 | 1.27 | 2.38
CC(C)Cc1cnc(CC(C)C)c(=O)[nH]1 | > 100 | > 100 | > 100 | > 100 | > 100 | > 100 | > 100 | > 100 | > 100 | > 100 | – | – | – | – | – | – | – | – | – | –
Cn1c(COC(=O)NCCn2ccnc2)nc2c(N3CCOCC3)nc(-c3ccccc3)nc21 | 1.94 | 2.91 | 1.97 | 2.15 | 3.08 | 2.14 | 1.89 | 2.04 | 1.31 | 2.63 | 0.657 | 1.42 | 0.692 | 0.759 | 1.52 | 0.751 | 0.356 | 0.737 | 0.353 | 0.913
CSc1nc(Nc2cccc(NC(=O)CCl)c2)c(C#N)c(-c2cccc([N+](=O)[O-])c2)n1 | 0.685 | 23.2 | 6.77 | 4.8 | 4.35 | 3.73 | 2.44 | 5.68 | 1.91 | 9.37 | 0.214 | 4.12 | 2.06 | 0.682 | 1.7 | 1.61 | 0.74 | 1.79 | 0.534 | 2.39
OCc1ccc(N(Cc2ccc(F)cc2)Cc2ccc(F)cc2)cc1Cl | 8.07 | 17.1 | 14.7 | 22 | 24.3 | 22.8 | 17 | 28.4 | 23 | 27.8 | 2.08 | 3.64 | 3.01 | 7.74 | 7.95 | 9.08 | 3.72 | 13.5 | 10.9 | 12.5
CC(C)(C)C[C@H]1N[C@@H](C(=O)NC2CCC(O)CC2)[C@H](c2cccc(Cl)c2F)[C@@]12C(=O)Nc1cc(Cl)ccc12 (stereo not given in full) | 16.7 | 13.4 | 18.7 | 17.9 | 29.2 | 13.5 | 2.98 | 14.1 | 10.1 | 39.4 | 2.07 | 0.678 | 5.6 | 3.78 | 11.1 | 3.65 | 0.228 | 3.8 | 0.375 | 14.8
CCOC(=O)Nc1ccc2nc(-c3cscn3)[nH]c2c1 | > 100 | > 100 | > 100 | 29.4 | > 100 | > 100 | > 100 | > 100 | > 100 | > 100 | 6.3 | 4.05 | 48.9 | 2.84 | 8.47 | 10.4 | 2.68 | 7.1 | 8.45 | 7.89
